Data published in ChEMBL document CHEMBL3994662, “In vivo instability of platensimycin and platencin: Synthesis and biological evaluation of urea- and carbamate-platensimycin” (Bioorg Med Chem, 2017).
Values belong to the compound of their own block, whether it stands above or below them.

Tests used:
[1] = Elimination half life in C57Bl/6 mouse at 10 mg/kg, iv administered as single dose by LC-MS/MS analysis; type: ADME, organism-based; conditions: in vivo, read-out: beta t1/2 (converted)
[2] = test system: Mus musculus; test: AUC (0 to 8 hrs) in C57Bl/6 mouse assessed as platensimycin level at 10 mg/kg, iv administered as single dose by LC-MS/MS analysis; type: ADME, organism-based; parameters: dose 10 mg/kg, time < 8 hr, route intravenous; conditions: in vivo
[3] = test system: Mus musculus; test: Elimination half life in C57Bl/6 mouse assessed as platensimycin level at 10 mg/kg, iv administered as single dose by LC-MS/MS analysis; type: ADME, organism-based; conditions: in vivo
[4] = test system: Mus musculus; test: Cmax in C57Bl/6 mouse assessed as platensimycin level at 10 mg/kg, iv administered as single dose by LC-MS/MS analysis; type: ADME, organism-based; parameters: dose 10 mg/kg, route intravenous; conditions: in vivo
[5] = test system: Plasma; test: Drug metabolism in C57Bl/6 mouse plasma assessed as platensimycin formation at 10 mg/kg, iv administered as single dose measured after 60 mins by LC-MS/MS analysis; type: ADME, organism-based; conditions: in vivo, 1 h
[6] = Ratio of drug level in C57Bl/6 mouse liver to plasma at 10 mg/kg, iv administered as single dose measured after 60 mins by LC-MS/MS analysis; type: ADME, organism-based
[7] = Volume of distribution in C57Bl/6 mouse at 10 mg/kg, iv administered as single dose by LC-MS/MS analysis; type: ADME, organism-based; conditions: in vivo
[8] = test system: Mus musculus; test: Volume of distribution in C57Bl/6 mouse assessed as platensimycin level at 10 mg/kg, iv administered as single dose by LC-MS/MS analysis; type: ADME, organism-based; conditions: in vivo
[9] = test system: Plasma; test: Drug uptake in C57Bl/6 mouse plasma at 10 mg/kg, iv administered as single dose measured after 60 mins by LC-MS/MS analysis; type: ADME, organism-based; conditions: in vivo, 1 h
[10] = Drug level in C57Bl/6 mouse urine assessed as platensimycin level at 10 mg/kg, iv administered as single dose measured after 60 mins by LC-MS/MS analysis; type: ADME, organism-based; conditions: in vivo, 1 h
[11] = Drug level in C57Bl/6 mouse urine at 10 mg/kg, iv administered as single dose measured after 60 mins by LC-MS/MS analysis; type: ADME, organism-based
[12] = Ratio of drug level in C57Bl/6 mouse kidney to plasma at 10 mg/kg, iv administered as single dose measured after 60 mins by LC-MS/MS analysis; type: ADME, organism-based
[13] = test system: Mus musculus; test: AUC (0 to 8 hrs) in C57Bl/6 mouse at 10 mg/kg, iv administered as single dose by LC-MS/MS analysis; type: ADME, organism-based; parameters: dose 10 mg/kg, time < 8 hr, route intravenous; conditions: in vivo
[14] = Observed clearance in C57Bl/6 mouse at 10 mg/kg, iv administered as single dose by LC-MS/MS analysis; type: ADME, organism-based; conditions: in vivo
[15] = Cmax in C57Bl/6 mouse at 10 mg/kg, iv administered as single dose by LC-MS/MS analysis; type: ADME, organism-based; parameters: dose 10 mg/kg, route intravenous; conditions: in vivo
[16] = test system: Mus musculus; test: Cmax in C57Bl/6 mouse assessed as platensimycin ML12 level at 10 mg/kg, iv administered as single dose by LC-MS/MS analysis; type: ADME, organism-based; parameters: dose 10 mg/kg, route intravenous; conditions: in vivo
[17] = test system: Mus musculus; test: Elimination half life in C57Bl/6 mouse assessed as platensimycin ML12 level at 10 mg/kg, iv administered as single dose by LC-MS/MS analysis; type: ADME, organism-based; conditions: in vivo
[18] = test system: Mus musculus; test: AUC (0 to 8 hrs) in C57Bl/6 mouse assessed as platensimycin ML12 level at 10 mg/kg, iv administered as single dose by LC-MS/MS analysis; type: ADME, organism-based; parameters: dose 10 mg/kg, time < 8 hr, route intravenous; conditions: in vivo
[19] = test system: Liver; test: In vivo stability in C57Bl/6 mouse liver assessed as compound hydrolysis at 10 mg/kg, iv administered as single dose measured after 60 mins by LC-MS/MS analysis; type: ADME, organism-based; conditions: 1 h
[20] = In vivo stability in C57Bl/6 mouse urine assessed as compound hydrolysis at 10 mg/kg, iv administered as single dose measured after 60 mins by LC-MS/MS analysis; type: ADME, organism-based; conditions: 1 h
[21] = test system: Staphylococcus aureus; test: Antibacterial activity against Staphylococcus aureus ATCC 25923 after 18 hrs by broth dilution method; type: functional; conditions: ATCC 25923, 18 h
[22] = test system: Kidney; test: Drug uptake in C57Bl/6 mouse kidney at 10 mg/kg, iv administered as single dose measured after 60 mins by LC-MS/MS analysis; type: ADME, organism-based; conditions: in vivo, 1 h
[23] = test system: Liver; test: Drug uptake in C57Bl/6 mouse liver at 10 mg/kg, iv administered as single dose measured after 60 mins by LC-MS/MS analysis; type: ADME, organism-based; conditions: in vivo, 1 h
[24] = test system: Plasma; test: In vivo stability in C57Bl/6 mouse plasma assessed as compound hydrolysis at 10 mg/kg, iv administered as single dose measured after 60 mins by LC-MS/MS analysis; type: ADME, organism-based; conditions: 1 h
[25] = test system: Kidney; test: In vivo stability in C57Bl/6 mouse kidney assessed as compound hydrolysis at 10 mg/kg, iv administered as single dose measured after 60 mins by LC-MS/MS analysis; type: ADME, organism-based; conditions: 1 h
[26] = test system: Micrococcus luteus; test: Antibacterial activity against Micrococcus luteus ATCC 9431 after 18 hrs by broth dilution method; type: functional; conditions: ATCC 9431, 18 h

half-life [1]: 1.1 h | AUC [2]: 6.3 µM·h | beta t1/2 [3]: 1.9 h | Cmax [4]: 15 µM | Drug metabolism [5]: Metabolite_Detected | Kp at 1 h [6]: 0.6 | Vd [7]: 0.33 L/kg | Vd [8]: 2.5 L/kg | Drug uptake [9]: Active | Drug uptake [10]: < 1% | dose excreted at 1 h ([11]; C57Bl/6, mouse, urine, read-out: Drug uptake): < 1% | Kp at 1 h [12]: 0.2 | AUC [13]: 18 µM·h | clearance [14]: 11 mL/min/kg | Cmax [15]: 38 µM
Structure (SMILES): C[C@]12C[C@@]34C=CC(=O)[C@@](C)(CCC(=O)Nc5c(O)ccc(C(=O)S[C@H]6CC(=O)[C@@](C)(CCC(=O)Nc7c(O)ccc(C(=O)O)c7O)[C@@H]7[C@@H]8C[C@@H]9C[C@]67C[C@]9(C)O8)c5O)[C@@H]3[C@H](C[C@@H]1C4)O2

half-life [1]: 0.76 h | Cmax [16]: 2.3 µM | Vd [7]: 0.08 L/kg | beta t1/2 [17]: 1.8 h | AUC [18]: 2.5 µM·h | AUC [13]: 71 µM·h | clearance [14]: 3 mL/min/kg | Cmax [15]: 150 µM
Structure (SMILES): C[C@@]1(O)C[C@]23C[C@H]1CC[C@H]2[C@]1(C)CCC(=O)Nc2c(O)ccc(c2O)C(=O)S[C@H]2CC(=O)[C@@](C)(CCC(=O)Nc4c(O)ccc(c4O)C(=O)S[C@H]3CC1=O)[C@@H]1CC[C@@H]3C[C@]21C[C@@]3(C)O

Stability [19]: Stable | Stability [20]: Stable | MIC [21]: > 64 µg/mL | Drug uptake [22]: Active | Drug uptake [9]: Active | Drug uptake ([11]; mouse, in vivo, 1 h): Active | Drug uptake [23]: Active | Stability [24]: Stable | Stability [25]: Stable | MIC [26]: > 64 µg/mL
Structure (SMILES): C[C@]12C[C@@]34C=CC(=O)[C@@](C)(CCNC(=O)Nc5c(O)ccc(C(=O)O)c5O)[C@@H]3[C@H](C[C@@H]1C4)O2
